Type in all cases: biochemical
Assay [1] deals with human Cathepsin S (Homo sapiens (Human), UniProt P25774). Kind of assay: Cathepsin enzyme inhibition assay (fluorogenic peptide substrate), Cat S. Particulars: enzyme 1 nM, substrate Z-Val-Val-Arg-AMC 20 μM, pH 6.5. The gist of the method:
(§1)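 Fluorogenic cleavage assay run separately on human and mouse enzymes, each at 1 nM, in 100 mM potassium phosphate pH 6.5 with 5 mM EDTA, 5 mM DTT and 0.001% Triton X-100. Reaction started with 20 μM Z-Val-Val-Arg-AMC, or Z-Leu-Arg-AMC for Cat K; AMC read at ex 360/em 465 nm. IC50 calculated by standard methods.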

The target in assay [2] is human Cat L (Homo sapiens (Human), UniProt P07711). Kind of assay: Cathepsin enzyme inhibition assay (fluorogenic peptide substrate), Cat L. Particulars: enzyme 1 nM, substrate Z-Val-Val-Arg-AMC 20 μM, pH 6.5. The essentials: as §1
Sequence of human Cat L (P07711 114-333): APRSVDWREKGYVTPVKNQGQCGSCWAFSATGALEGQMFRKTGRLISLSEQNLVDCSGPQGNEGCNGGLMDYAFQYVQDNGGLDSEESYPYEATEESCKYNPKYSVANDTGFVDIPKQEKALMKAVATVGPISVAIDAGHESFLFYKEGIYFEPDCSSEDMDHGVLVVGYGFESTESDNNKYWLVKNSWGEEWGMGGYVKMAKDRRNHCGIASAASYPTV
The target of assay [3] is human Cat K (Homo sapiens (Human), UniProt P43235). In words: Cathepsin enzyme inhibition assay (fluorogenic peptide substrate), Cat K. The settings on record: enzyme 1 nM, substrate Z-Leu-Arg-AMC 20 μM, pH 6.5. The gist of the method:
as §1

Assay [4] has as its target human Cat B (Homo sapiens (Human), UniProt P07858). In words: Cathepsin enzyme inhibition assay (fluorogenic peptide substrate), Cat B. The settings on record: enzyme 1 nM, substrate Z-Val-Val-Arg-AMC 20 μM, pH 6.5. The essentials: as §1

The values below come from patent publication US8729061B2, “Pyrrolidine derivatives” (Hoffmann-La Roche Inc., priority 2011, dated 2014).

Sequence of human Cathepsin S (P25774 115-331): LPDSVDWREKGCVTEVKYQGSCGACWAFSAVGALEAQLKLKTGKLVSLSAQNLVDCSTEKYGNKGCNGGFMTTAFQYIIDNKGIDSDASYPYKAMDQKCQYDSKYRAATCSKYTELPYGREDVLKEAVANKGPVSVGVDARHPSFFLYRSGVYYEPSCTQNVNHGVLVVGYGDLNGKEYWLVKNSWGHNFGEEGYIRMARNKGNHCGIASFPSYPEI
Sequence of human Cat K (P43235 115-329): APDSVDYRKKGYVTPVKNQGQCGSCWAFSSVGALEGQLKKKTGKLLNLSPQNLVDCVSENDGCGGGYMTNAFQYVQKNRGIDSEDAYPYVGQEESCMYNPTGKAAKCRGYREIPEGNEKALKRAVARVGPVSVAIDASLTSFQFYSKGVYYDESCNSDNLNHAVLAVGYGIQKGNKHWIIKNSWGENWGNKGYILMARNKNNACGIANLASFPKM

With `CC[C@H](NC(=O)[C@@H]1C[C@@H](S(=O)(=O)c2ccccc2Cl)CN1C(=O)C1(c2ccc(Cl)cc2)CC1)C(=O)C(=O)NCCc1ccccc1` [Example 49, (2S,4R)-1-(1-(4-chlorophenyl)cyclopropanecarbonyl)-4-(2-chlorophenylsulfonyl)-N—((S)-1,2-dioxo-1-(phenethylamino)pentan-3-yl)pyrrolidine-2-carboxamide], the IC50 turned out to be 0.901 nM in assay [1], 2 nM in assay [2], 34.4 nM in assay [3] and 30.2 nM in assay [4].
Taken in the same sequence, the figures for `CC[C@H](NC(=O)[C@@H]1C[C@@H](S(=O)(=O)c2ccccc2Cl)CN1C(=O)C1(c2ccc(Cl)cc2)CC1)C(=O)C(=O)NCCc1cccc2ccccc12` [Example 50, (2S,4R)-1-(1-(4-chlorophenyl)cyclopropanecarbonyl)-4-(2-chlorophenylsulfonyl)-N—((S)-1-(2-(naphthalen-1-yl)ethylamino)-1,2-dioxopentan-3-yl)pyrrolidine-2-carboxamide] were 2.76 nM, 8.6 nM, 119 nM and 68.8 nM.
Taken in the same sequence, the figures for `CC[C@H](NC(=O)[C@@H]1C[C@@H](S(=O)(=O)c2ccccc2Cl)CN1C(=O)C1(c2ccc(Cl)cc2)CC1)C(=O)C(=O)NCCc1ccc2ccccc2c1` [Example 51, (2S,4R)-1-(1-(4-chlorophenyl)cyclopropanecarbonyl)-4-(2-chlorophenylsulfonyl)-N—((S)-1-(2-(naphthalen-2-yl)ethylamino)-1,2-dioxopentan-3-yl)pyrrolidine-2-carboxamide] were 3.08 nM, 13 nM, 159 nM and 172 nM.
As to `CC[C@H](NC(=O)[C@@H]1C[C@@H](S(=O)(=O)c2ccccc2Cl)CN1C(=O)C1(c2ccc(Cl)cc2)CC1)C(=O)C(=O)NCc1cccc2ccccc12` [Example 52, (2S,4R)-1-(1-(4-chlorophenyl)cyclopropanecarbonyl)-4-(2-chlorophenylsulfonyl)-N—((S)-1-(naphthalen-1-ylmethylamino)-1,2-dioxopentan-3-yl)pyrrolidine-2-carboxamide], the IC50 in assay [1] amounted to 1.96 nM; in assay [2], 9.4 nM; in assay [3], 317 nM; in assay [4], 386 nM.
The like results for `CC[C@H](NC(=O)[C@@H]1C[C@@H](S(=O)(=O)c2ccccc2Cl)CN1C(=O)C1(c2ccc(Cl)cc2)CC1)C(=O)C(=O)NC1CCOCC1` [Example 53, (2S,4R)-1-(1-(4-chlorophenyl)cyclopropanecarbonyl)-4-(2-chlorophenylsulfonyl)-N—((S)-1,2-dioxo-1-(tetrahydro-2H-pyran-4-ylamino)pentan-3-yl)pyrrolidine-2-carboxamide] were, in that order, 0.676 nM, 1.7 nM, 39.3 nM and 188 nM.
The like results for `CC[C@H](NC(=O)[C@@H]1C[C@@H](S(=O)(=O)c2ccccc2Cl)CN1C(=O)C1(c2ccc(Cl)cc2)CC1)C(=O)C(=O)NCCOC` [Example 54, (2S,4R)-1-(1-(4-chlorophenyl)cyclopropanecarbonyl)-4-(2-chlorophenylsulfonyl)-N—((S)-1-(2-methoxyethylamino)-1,2-dioxopentan-3-yl)pyrrolidine-2-carboxamide] were, in that order, 0.63 nM, 2.6 nM, 82 nM and 85.4 nM.
Take `CC[C@H](NC(=O)[C@@H]1C[C@@H](S(=O)(=O)c2ccccc2Cl)CN1C(=O)C1(c2ccc(Cl)cc2)CC1)C(=O)C(=O)NCC(C)C` [Example 55, (2S,4R)-1-(1-(4-chlorophenyl)cyclopropanecarbonyl)-4-(2-chlorophenylsulfonyl)-N—((S)-1-(isobutylamino)-1,2-dioxopentan-3-yl)pyrrolidine-2-carboxamide]: the IC50 was determined as 0.876 nM in assay [1], 2.6 nM in assay [2], 56.5 nM in assay [3] and 61.6 nM in assay [4].
For the compound `CC[C@H](NC(=O)[C@@H]1C[C@@H](S(=O)(=O)c2ccc(N3CCOCC3)cc2Cl)CN1C(=O)C1(c2ccc(Cl)cc2)CC1)C(=O)C(=O)NC1CC1` [Example 56, (2S,4R)-4-(2-chloro-4-morpholinophenylsulfonyl)-1-(1-(4-chlorophenyl)cyclopropanecarbonyl)-N—((S)-1-(cyclopropylamino)-1,2-dioxopentan-3-yl)pyrrolidine-2-carboxamide], the IC50 in assay [1] stood at 2.57 nM; in assay [2], 20.6 nM; in assay [3], 65.4 nM; in assay [4], 101 nM.
Taken in the same sequence, the figures for `CCC[C@H](NC(=O)[C@@H]1C[C@@H](S(=O)(=O)c2ccc(N3CCOCC3)cc2Cl)CN1C(=O)C1(c2ccc(Cl)cc2)CC1)C(=O)C(=O)NC1CC1` [Example 57, (2S,4R)-4-(2-chloro-4-morpholinophenylsulfonyl)-1-(1-(4-chlorophenyl)cyclopropanecarbonyl)-N—((S)-1-(cyclopropylamino)-1,2-dioxohexan-3-yl)pyrrolidine-2-carboxamide] were 3.33 nM, 24.9 nM, 75 nM and 93.2 nM.
The like results for `CC(C)C[C@H](NC(=O)[C@@H]1C[C@@H](S(=O)(=O)c2ccccc2Cl)CN1C(=O)C1(c2ncc(Cl)cc2F)CC1)C(=O)C(=O)NC1CC1` [Example 59, (2S,4R)-1-(1-(5-chloro-3-fluoropyridin-2-yl)cyclopropanecarbonyl)-4-(2-chlorophenylsulfonyl)-N—((S)-1-(cyclopropylamino)-5-methyl-1,2-dioxohexan-3-yl)pyrrolidine-2-carboxamide] were, in that order, 2.61 nM, 6.4 nM, 141 nM and 518 nM.
Regarding `CCCCNC(=O)C(=O)[C@H](CC)NC(=O)[C@@H]1C[C@@H](S(=O)(=O)c2ccccc2Cl)CN1C(=O)C1(c2ncc(Cl)cc2F)CC1` [Example 60, (2S,4R)—N—((S)-1-(butylamino)-1,2-dioxopentan-3-yl)-1-(1-(5-chloro-3-fluoropyridin-2-yl)cyclopropanecarbonyl)-4-(2-chlorophenylsulfonyl)pyrrolidine-2-carboxamide], the IC50 in assay [1] turned out to be 2.87 nM; in assay [2], 6.1 nM; in assay [3], 144 nM; in assay [4], 354 nM.
As for `CCCCNC(=O)C(=O)[C@H](CCC)NC(=O)[C@@H]1C[C@@H](S(=O)(=O)c2ccccc2Cl)CN1C(=O)C1(c2ncc(Cl)cc2F)CC1` [Example 61, (2S,4R)—N—((S)-1-(butylamino)-1,2-dioxohexan-3-yl)-1-(1-(5-chloro-3-fluoropyridin-2-yl)cyclopropanecarbonyl)-4-(2-chlorophenylsulfonyl)pyrrolidine-2-carboxamide], the IC50 was found to be 2.93 nM in assay [1], 6.2 nM in assay [2], 106 nM in assay [3] and 172 nM in assay [4].
The like results for `CCC[C@H](NC(=O)[C@@H]1C[C@@H](S(=O)(=O)c2ccccc2Cl)CN1C(=O)C1(c2ncc(Cl)cc2F)CC1)C(=O)C(=O)NCc1ccccc1` [Example 62, (2S,4R)—N—((S)-1-(benzylamino)-1,2-dioxohexan-3-yl)-1-(1-(5-chloro-3-fluoropyridin-2-yl)cyclopropanecarbonyl)-4-(2-chlorophenylsulfonyl)pyrrolidine-2-carboxamide] were, in that order, 2.35 nM, 6 nM, 41.2 nM and 120 nM.

A word on the IC50: it is the concentration at which inhibition is half-maximal. Read a low IC50 as inhibition by little substance.
